# Measurements from US12162840B2, “Herbicidal compositions” (SYNGENTA PARTICIPATIONS AG, priority 2018, dated 2024).
# Tested on: cool season plant species
# Assay: B2 Post-emergence efficacy Test 2, cool season plant species
# Assay type: in vivo
# Details: 15 days after application, 0=no damage, 100=total kill
# Protocol: Seeds of a variety of test species (see Table B1) were sown in standard soil in pots. After cultivation for 12 days (post-emergence) under controlled conditions in a glasshouse (at 24/18° C. or 20/16° C., at day/night; 16 hours light; 65% humidity), the plants were sprayed with an aqueous spray solution derived from the formulation of the technical active ingredient dissolved in IF50 (see Table B2 for composition) and adjuvant (Genapol XO80) was added to the spray solution at a rate of 0.2% v/v. [table] [table] After application, the test plants were grown in a glasshouse under controlled conditions (as above) and watered twice daily. Herbicidal activity was evaluated 15 days after application on a 0-100 scale. The results, where 0=no damage to test plant and 100=total kill of test plant are shown below in Tables 6 to 9.
structure (smiles),measurement,setting,value
Cc1nn(C)c(=O)c(-c2c(F)ccc(Cl)c2CCc2ccc(F)cc2)c1O [Compound 1.048],Herbicidal activity (0-100 scale) ALOMY,15 g/Ha,20
same,Herbicidal activity (0-100 scale) ALOMY,30 g/Ha,30
same,Herbicidal activity (0-100 scale) ALOMY,60 g/Ha,70
same,Herbicidal activity (0-100 scale) ALOMY,125 g/Ha,80
same,Herbicidal activity (0-100 scale) ALOMY,250 g/Ha,80
same,Herbicidal activity (0-100 scale) ALOMY,500 g/Ha,90
same,Herbicidal activity (0-100 scale) AVEFA,15 g/Ha,10
same,Herbicidal activity (0-100 scale) AVEFA,30 g/Ha,30
same,Herbicidal activity (0-100 scale) AVEFA,60 g/Ha,60
same,Herbicidal activity (0-100 scale) AVEFA,125 g/Ha,80
same,Herbicidal activity (0-100 scale) AVEFA,250 g/Ha,90
same,Herbicidal activity (0-100 scale) AVEFA,500 g/Ha,90
same,Herbicidal activity (0-100 scale) BEAVA,15 g/Ha,70
same,Herbicidal activity (0-100 scale) BEAVA,30 g/Ha,80
same,Herbicidal activity (0-100 scale) BEAVA,60 g/Ha,80
same,Herbicidal activity (0-100 scale) BEAVA,125 g/Ha,90
same,Herbicidal activity (0-100 scale) BEAVA,250 g/Ha,90
same,Herbicidal activity (0-100 scale) BEAVA,500 g/Ha,90
same,Herbicidal activity (0-100 scale) BROTE,15 g/Ha,0
same,Herbicidal activity (0-100 scale) BROTE,30 g/Ha,10
same,Herbicidal activity (0-100 scale) BROTE,60 g/Ha,20
same,Herbicidal activity (0-100 scale) BROTE,125 g/Ha,50
same,Herbicidal activity (0-100 scale) BROTE,250 g/Ha,60
same,Herbicidal activity (0-100 scale) BROTE,500 g/Ha,70
same,Herbicidal activity (0-100 scale) BRSNN,15 g/Ha,90
same,Herbicidal activity (0-100 scale) BRSNN,30 g/Ha,90
same,Herbicidal activity (0-100 scale) BRSNN,60 g/Ha,90
same,Herbicidal activity (0-100 scale) BRSNN,125 g/Ha,90
same,Herbicidal activity (0-100 scale) BRSNN,250 g/Ha,90
same,Herbicidal activity (0-100 scale) BRSNN,500 g/Ha,90
same,Herbicidal activity (0-100 scale) CHEAL,125 g/Ha,70
same,Herbicidal activity (0-100 scale) CHEAL,250 g/Ha,90
same,Herbicidal activity (0-100 scale) CHEAL,500 g/Ha,100
same,Herbicidal activity (0-100 scale) GALAP,15 g/Ha,20
same,Herbicidal activity (0-100 scale) GALAP,30 g/Ha,30
same,Herbicidal activity (0-100 scale) GALAP,60 g/Ha,50
same,Herbicidal activity (0-100 scale) GALAP,125 g/Ha,60
same,Herbicidal activity (0-100 scale) GALAP,250 g/Ha,60
same,Herbicidal activity (0-100 scale) GALAP,500 g/Ha,80
same,Herbicidal activity (0-100 scale) HORVW,15 g/Ha,10
same,Herbicidal activity (0-100 scale) HORVW,30 g/Ha,10
same,Herbicidal activity (0-100 scale) HORVW,60 g/Ha,10
same,Herbicidal activity (0-100 scale) HORVW,125 g/Ha,40
same,Herbicidal activity (0-100 scale) HORVW,250 g/Ha,40
same,Herbicidal activity (0-100 scale) HORVW,500 g/Ha,80
same,Herbicidal activity (0-100 scale) KCHSC,15 g/Ha,0
same,Herbicidal activity (0-100 scale) KCHSC,30 g/Ha,0
same,Herbicidal activity (0-100 scale) KCHSC,60 g/Ha,10
same,Herbicidal activity (0-100 scale) KCHSC,125 g/Ha,20
same,Herbicidal activity (0-100 scale) KCHSC,250 g/Ha,50
same,Herbicidal activity (0-100 scale) KCHSC,500 g/Ha,80
same,Herbicidal activity (0-100 scale) LOLPE,15 g/Ha,20
same,Herbicidal activity (0-100 scale) LOLPE,30 g/Ha,40
same,Herbicidal activity (0-100 scale) LOLPE,60 g/Ha,90
same,Herbicidal activity (0-100 scale) LOLPE,125 g/Ha,90
same,Herbicidal activity (0-100 scale) LOLPE,250 g/Ha,90
same,Herbicidal activity (0-100 scale) LOLPE,500 g/Ha,90
same,Herbicidal activity (0-100 scale) POAAN,15 g/Ha,30
same,Herbicidal activity (0-100 scale) POAAN,30 g/Ha,30
same,Herbicidal activity (0-100 scale) POAAN,60 g/Ha,80
same,Herbicidal activity (0-100 scale) POAAN,125 g/Ha,80
same,Herbicidal activity (0-100 scale) POAAN,250 g/Ha,90
same,Herbicidal activity (0-100 scale) POAAN,500 g/Ha,90
same,Herbicidal activity (0-100 scale) POLCO,15 g/Ha,60
same,Herbicidal activity (0-100 scale) POLCO,30 g/Ha,70
same,Herbicidal activity (0-100 scale) POLCO,60 g/Ha,90
same,Herbicidal activity (0-100 scale) POLCO,125 g/Ha,90
same,Herbicidal activity (0-100 scale) POLCO,250 g/Ha,90
same,Herbicidal activity (0-100 scale) POLCO,500 g/Ha,90
same,Herbicidal activity (0-100 scale) SINAR,15 g/Ha,40
same,Herbicidal activity (0-100 scale) SINAR,30 g/Ha,80
same,Herbicidal activity (0-100 scale) SINAR,60 g/Ha,80
same,Herbicidal activity (0-100 scale) SINAR,125 g/Ha,90
same,Herbicidal activity (0-100 scale) SINAR,250 g/Ha,90
same,Herbicidal activity (0-100 scale) SINAR,500 g/Ha,90
same,Herbicidal activity (0-100 scale) STEME,15 g/Ha,90
same,Herbicidal activity (0-100 scale) STEME,30 g/Ha,90
same,Herbicidal activity (0-100 scale) STEME,60 g/Ha,90
same,Herbicidal activity (0-100 scale) STEME,125 g/Ha,100
same,Herbicidal activity (0-100 scale) STEME,250 g/Ha,100
same,Herbicidal activity (0-100 scale) STEME,500 g/Ha,100
same,Herbicidal activity (0-100 scale) TRZAW,15 g/Ha,0
same,Herbicidal activity (0-100 scale) TRZAW,30 g/Ha,10
same,Herbicidal activity (0-100 scale) TRZAW,60 g/Ha,20
same,Herbicidal activity (0-100 scale) TRZAW,125 g/Ha,20
same,Herbicidal activity (0-100 scale) TRZAW,250 g/Ha,50
same,Herbicidal activity (0-100 scale) TRZAW,500 g/Ha,80
same,Herbicidal activity (0-100 scale) VERPE,15 g/Ha,60
same,Herbicidal activity (0-100 scale) VERPE,30 g/Ha,80
same,Herbicidal activity (0-100 scale) VERPE,60 g/Ha,90
same,Herbicidal activity (0-100 scale) VERPE,125 g/Ha,80
same,Herbicidal activity (0-100 scale) VERPE,250 g/Ha,100
same,Herbicidal activity (0-100 scale) VERPE,500 g/Ha,100
